For one data set, the system named is Fusobacterium nucleatum. Kind of data set: Antibiofilm activity against Fusobacterium nucleatum ATCC 25586 assessed as inhibition of biofilm formation up to 96 ug/mL after 24 hrs by crystal violet staining based assay. Format: functional, organism-based.
The subject of data set [1] is Streptococcus mutans. Kind of data set: Inhibition of planktonic growth of Streptococcus mutans ATCC 25175 up to 96 ug/mL after 24 hrs relative to control. The class given is organism-based.
The test system of data set [2] is Streptococcus mutans. In words: Antibiofilm activity against Streptococcus mutans ATCC 25175 assessed as inhibition of biofilm formation up to 96 ug/mL after 24 hrs by crystal violet staining-based assay. Format: functional, organism-based.
In another data set the test system is Porphyromonas gingivalis. In words: Antibiofilm activity against Porphyromonas gingivalis ATCC 33277 assessed as inhibition of biofilm formation up to 96 ug/mL after 24 hrs by crystal violet staining based assay. The class given is functional, organism-based.

Activity calls are given as the source filed them. No rule for the calls is given here.

With `CC(C)[C@@H]1NC(=O)[C@H](COCc2ccccc2)NC1=O`, the inhibition result with Fusobacterium nucleatum, with Streptococcus mutans [2] and in the data set on Porphyromonas gingivalis was “inactive” each time. In addition, the “growth inhibition (GI)” value in the data set on Streptococcus mutans [1] was “Non-Toxic”.

On to `CC(C)C[C@@H]1NC(=O)[C@@H](CC(C)C)NC1=O`, for which the inhibition result in the data set with Fusobacterium nucleatum, with Streptococcus mutans [2] and in the data set with Porphyromonas gingivalis was “inactive” in each case. The “growth inhibition (GI)” value in the data set on Streptococcus mutans [1] is “Non-Toxic”.

In the case of `CC(C)C[C@@H]1NC(=O)[C@H](C)NC1=O`, the inhibition result in the data set on Fusobacterium nucleatum, in the data set on Streptococcus mutans [2] and with Porphyromonas gingivalis was “inactive” each time. In the data set with Streptococcus mutans [1], the “growth inhibition (GI)” value is “Non-Toxic”.

Turning to `O=C1N[C@H](Cc2ccccc2)C(=O)N[C@H]1COCc1ccccc1`, the inhibition result with Fusobacterium nucleatum, in the data set with Streptococcus mutans [2] and in the data set with Porphyromonas gingivalis was “inactive” each time. Besides, in the data set with Streptococcus mutans [1], the “growth inhibition (GI)” value is “Non-Toxic”.

As for `O=C1[C@@H]2CSCN2C(=O)[C@@H]2CSCN12`, the inhibition result with Fusobacterium nucleatum, in the data set on Streptococcus mutans [2] and with Porphyromonas gingivalis was “inactive” in each case. Moreover, the “growth inhibition (GI)” value in the data set with Streptococcus mutans [1] is “Non-Toxic”.

Consider `C[C@@H]1NC(=O)[C@@H](C)NC1=O`, for which the inhibition result in the data set on Fusobacterium nucleatum, with Streptococcus mutans [2] and in the data set on Porphyromonas gingivalis was “inactive” throughout. For the same compound, in the data set with Streptococcus mutans [1], the “growth inhibition (GI)” value is recorded as “Non-Toxic”.

Take `CC(C)C[C@H]1NC(=O)[C@@H](Cc2ccc(OCc3ccccc3)cc2)NC1=O`: the inhibition entry with Fusobacterium nucleatum, with Streptococcus mutans [2] and in the data set with Porphyromonas gingivalis was “inactive” in each case. Further, the “growth inhibition (GI)” value with Streptococcus mutans [1] is given as “Non-Toxic”.

For `C[C@H]1NC(=O)[C@@H](Cc2ccccc2)NC1=O`, the inhibition result with Fusobacterium nucleatum, in the data set with Streptococcus mutans [2] and in the data set on Porphyromonas gingivalis was “inactive” throughout. Further, the “growth inhibition (GI)” value in the data set on Streptococcus mutans [1] is recorded as “Non-Toxic”.

Regarding `O=C1N[C@H](Cc2ccccc2)C(=O)N[C@@H]1COCc1ccccc1`, the inhibition result with Fusobacterium nucleatum, in the data set on Streptococcus mutans [2] and in the data set on Porphyromonas gingivalis was “inactive” each time. Also, the “growth inhibition (GI)” value in the data set with Streptococcus mutans [1] is “Non-Toxic”.

For the compound `CCC(C)[C@@H]1NC(=O)[C@H](COCc2ccccc2)NC1=O` (some centres not stated), the inhibition entry in the data set with Fusobacterium nucleatum, in the data set with Streptococcus mutans [2] and in the data set with Porphyromonas gingivalis was “inactive” in each case. The “growth inhibition (GI)” value in the data set on Streptococcus mutans [1] is given as “Non-Toxic”.

Turning to `O=C1CNC(=O)[C@H](Cc2ccccc2)N1`, the inhibition entry in the data set on Fusobacterium nucleatum, in the data set with Streptococcus mutans [2] and in the data set with Porphyromonas gingivalis was “inactive” throughout. In the data set with Streptococcus mutans [1], the “growth inhibition (GI)” value is “Non-Toxic”.

Take `O=C(NCCCC[C@@H]1NC(=O)[C@H](Cc2ccccc2)NC1=O)OCc1ccccc1`: the inhibition result in the data set on Fusobacterium nucleatum, in the data set on Streptococcus mutans [2] and in the data set with Porphyromonas gingivalis was “inactive” in each case. The “growth inhibition (GI)” value with Streptococcus mutans [1] is reported as “Non-Toxic”.

With `C[C@@H](OCc1ccccc1)[C@@H]1NC(=O)[C@H]([C@@H](C)OCc2ccccc2)NC1=O`, the inhibition result in the data set with Fusobacterium nucleatum, with Streptococcus mutans [2] and in the data set on Porphyromonas gingivalis was “inactive” in each case. Moreover, the “growth inhibition (GI)” value in the data set with Streptococcus mutans [1] is “Non-Toxic”.

Take `O=C1[C@@H]2CCCN2C(=O)[C@@H]2CCCN12`: the inhibition entry with Fusobacterium nucleatum, in the data set on Streptococcus mutans [2] and in the data set with Porphyromonas gingivalis was “inactive” throughout. Besides, the “growth inhibition (GI)” value in the data set on Streptococcus mutans [1] is on record as “Non-Toxic”.

For `CC(C)C[C@@H]1NC(=O)[C@H](Cc2ccc([N+](=O)[O-])cc2)NC1=O`, the inhibition result with Fusobacterium nucleatum, with Streptococcus mutans [2] and with Porphyromonas gingivalis was “inactive” each time. The “growth inhibition (GI)” value with Streptococcus mutans [1] is reported as “Non-Toxic”.

Consider `CC(C)C[C@@H]1NC(=O)[C@H](CCCN(C(=N)N)[N+](=O)[O-])NC1=O`, for which the inhibition result in the data set with Fusobacterium nucleatum, with Streptococcus mutans [2] and with Porphyromonas gingivalis was “inactive” each time. Besides, in the data set with Streptococcus mutans [1], the “growth inhibition (GI)” value was “Non-Toxic”.

As to `CC(C)C[C@H]1NC(=O)[C@H](Cc2ccccc2)NC1=O`, the inhibition entry with Fusobacterium nucleatum, with Streptococcus mutans [2] and with Porphyromonas gingivalis was “inactive” each time. In the data set on Streptococcus mutans [1], the “growth inhibition (GI)” value was “Non-Toxic”.

In the case of `O=C1N[C@@H](Cc2ccc([N+](=O)[O-])cc2)C(=O)N[C@H]1Cc1ccc([N+](=O)[O-])cc1`, the inhibition entry with Fusobacterium nucleatum, in the data set on Streptococcus mutans [2] and in the data set with Porphyromonas gingivalis was “inactive” in each case. Further, in the data set on Streptococcus mutans [1], the “growth inhibition (GI)” value is reported as “Non-Toxic”.

Consider `C[C@@H]1NC(=O)[C@H](Cc2ccc(OCc3ccccc3)cc2)NC1=O`, for which the inhibition result in the data set with Fusobacterium nucleatum, in the data set with Streptococcus mutans [2] and in the data set on Porphyromonas gingivalis was “inactive” in each case. The “growth inhibition (GI)” value in the data set with Streptococcus mutans [1] is on record as “Non-Toxic”.

On to `O=C1N[C@@H](Cc2ccc(OCc3ccccc3)cc2)C(=O)N2CCC[C@@H]12`, for which the inhibition entry in the data set with Fusobacterium nucleatum, in the data set with Streptococcus mutans [2] and with Porphyromonas gingivalis was “inactive” in each case. Further, the “growth inhibition (GI)” value with Streptococcus mutans [1] is given as “Non-Toxic”.

As for `CC(C)C[C@@H]1NC(=O)[C@H](Cc2ccc(OCc3ccccc3)cc2)NC1=O`, the inhibition result in the data set on Fusobacterium nucleatum, in the data set with Streptococcus mutans [2] and in the data set with Porphyromonas gingivalis was “inactive” throughout. In addition, the “growth inhibition (GI)” value in the data set on Streptococcus mutans [1] is listed as “Non-Toxic”.

As to `CC(C)[C@@H]1NC(=O)[C@H](C)NC1=O`, the inhibition result in the data set on Fusobacterium nucleatum, with Streptococcus mutans [2] and with Porphyromonas gingivalis was “inactive” each time. In addition, the “growth inhibition (GI)” value in the data set with Streptococcus mutans [1] is recorded as “Non-Toxic”.

As to `C[C@@H]1NC(=O)[C@H](CCC(N)=O)NC1=O`, the inhibition result in the data set with Fusobacterium nucleatum, in the data set on Streptococcus mutans [2] and in the data set on Porphyromonas gingivalis was “inactive” each time. Also, in the data set with Streptococcus mutans [1], the “growth inhibition (GI)” value was “Non-Toxic”.

In the case of `CCC(C)[C@@H]1NC(=O)[C@H](Cc2ccccc2)NC1=O` (some centres not stated), the inhibition entry with Fusobacterium nucleatum, in the data set on Streptococcus mutans [2] and in the data set with Porphyromonas gingivalis was “inactive” throughout. Besides, the “growth inhibition (GI)” value in the data set with Streptococcus mutans [1] is recorded as “Non-Toxic”.

With `O=C(NCCCC[C@@H]1NC(=O)[C@H](CCCCNC(=O)OCc2ccccc2)NC1=O)OCc1ccccc1`, the inhibition result with Fusobacterium nucleatum, in the data set with Streptococcus mutans [2] and in the data set on Porphyromonas gingivalis was “inactive” throughout. Besides, the “growth inhibition (GI)” value with Streptococcus mutans [1] is on record as “Non-Toxic”.

Turning to `CC(C)[C@H]1NC(=O)[C@@H](C(C)C)NC1=O`, the inhibition entry in the data set with Fusobacterium nucleatum, with Streptococcus mutans [2] and with Porphyromonas gingivalis was “inactive” throughout. Moreover, in the data set on Streptococcus mutans [1], the “growth inhibition (GI)” value is listed as “Non-Toxic”.

For the compound `CC(C)C[C@@H]1NC(=O)[C@H](COCc2ccccc2)NC1=O`, the inhibition result in the data set with Fusobacterium nucleatum, in the data set on Streptococcus mutans [2] and in the data set on Porphyromonas gingivalis was “inactive” each time. Besides, in the data set on Streptococcus mutans [1], the “growth inhibition (GI)” value is recorded as “Non-Toxic”.

Consider `CC(C)C[C@H]1NC(=O)[C@@H](CC(C)C)NC1=O`, for which the inhibition entry in the data set with Fusobacterium nucleatum, with Streptococcus mutans [2] and with Porphyromonas gingivalis was “inactive” in each case. Moreover, the “growth inhibition (GI)” value in the data set on Streptococcus mutans [1] is recorded as “Non-Toxic”.

As for `CC(C)C[C@H]1NC(=O)[C@@H](Cc2ccccc2)NC1=O`, the inhibition result in the data set on Fusobacterium nucleatum, in the data set on Streptococcus mutans [2] and with Porphyromonas gingivalis was “inactive” each time. Moreover, the “growth inhibition (GI)” value with Streptococcus mutans [1] is “Non-Toxic”.

For `CC(C)C[C@H]1NC(=O)[C@H](C(C)C)NC1=O`, the inhibition entry with Fusobacterium nucleatum, with Streptococcus mutans [2] and in the data set on Porphyromonas gingivalis was “inactive” in each case. For the same compound, in the data set on Streptococcus mutans [1], the “growth inhibition (GI)” value is listed as “Non-Toxic”.

For the compound `CC(C)C[C@@H]1NC(=O)[C@H](Cc2ccccc2)NC1=O`, the inhibition result with Fusobacterium nucleatum, with Streptococcus mutans [2] and in the data set with Porphyromonas gingivalis was “inactive” throughout. Also, the “growth inhibition (GI)” value in the data set with Streptococcus mutans [1] is recorded as “Non-Toxic”.

For the compound `O=C1[C@H]2CCCN2C(=O)[C@H]2CCCN12`, the inhibition entry in the data set with Fusobacterium nucleatum, in the data set with Streptococcus mutans [2] and in the data set with Porphyromonas gingivalis was “inactive” in each case. Also, in the data set on Streptococcus mutans [1], the “growth inhibition (GI)” value is “Non-Toxic”.

As for `C[C@H]1NC(=O)[C@@H](C)NC1=O`, the inhibition entry with Fusobacterium nucleatum, in the data set on Streptococcus mutans [2] and in the data set with Porphyromonas gingivalis was “inactive” throughout. For the same compound, the “growth inhibition (GI)” value in the data set with Streptococcus mutans [1] is listed as “Non-Toxic”.

For `O=C1CNC(=O)[C@H](CCC(=O)OCc2ccccc2)N1`, the inhibition result in the data set with Fusobacterium nucleatum, in the data set with Streptococcus mutans [2] and in the data set with Porphyromonas gingivalis was “inactive” each time. The “growth inhibition (GI)” value in the data set with Streptococcus mutans [1] is “Non-Toxic”.

Regarding `CC(C)[C@@H]1NC(=O)[C@H](C(C)C)NC1=O`, the inhibition result in the data set on Fusobacterium nucleatum, in the data set on Streptococcus mutans [2] and in the data set with Porphyromonas gingivalis was “inactive” in each case. Besides, in the data set with Streptococcus mutans [1], the “growth inhibition (GI)” value is on record as “Non-Toxic”.

Take `O=C1N[C@H](COCc2ccccc2)C(=O)N[C@@H]1COCc1ccccc1`: the inhibition result with Fusobacterium nucleatum, with Streptococcus mutans [2] and in the data set with Porphyromonas gingivalis was “inactive” throughout. Moreover, in the data set on Streptococcus mutans [1], the “growth inhibition (GI)” value was “Non-Toxic”.

On to `CC(C)C[C@@H]1NC(=O)CNC1=O`, for which the inhibition entry with Fusobacterium nucleatum, in the data set on Streptococcus mutans [2] and with Porphyromonas gingivalis was “inactive” in each case. Further, the “growth inhibition (GI)” value in the data set with Streptococcus mutans [1] is “Non-Toxic”.

For the compound `C[C@H]1NC(=O)[C@@H](Cc2ccc(OCc3ccccc3)cc2)NC1=O`, the inhibition entry with Fusobacterium nucleatum, in the data set with Streptococcus mutans [2] and in the data set with Porphyromonas gingivalis was “inactive” throughout. Also, the “growth inhibition (GI)” value in the data set with Streptococcus mutans [1] is “Non-Toxic”.

These data come from ChEMBL document CHEMBL4340502, “Anti-biofilm and anti-adherence properties of novel cyclic dipeptides against oral pathogens” (Bioorg Med Chem, 2019).
